The text below walks through data of ChEMBL document CHEMBL1201862, “PubChem BioAssay data set” (2004).

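Briefly, cells in 96-well plates were exposed to five compound concentrations for 48 h, and endpoints were estimated by linear interpolation. Here, GI50 denotes the concentration required for 50% inhibition of growth.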 Activity calls are given as the source filed them. Cut-off read from the data, not from the text of the source: active = GI50 up to about 1.1 µM and inactive = higher. Some results are limits rather than exact numbers.

Test systems include OVCAR-4; SF-268; 786-0; U-251; OVCAR-8; CCRF-CEM; NCI/ADR-RES; EKVX; ACHN; SK-OV-3; PC-3; UACC-62; M14; COLO 205; HL-60; K562; SR; UO-31; HT-29.
What all share (test): growth of human tumour cells (NCI), 48 h

As to `Oc1ccc2ccccc2c1/C=C/c1ccc2c(Br)cc(Br)c(O)c2n1`, the GI50 is 9.82 µM (inactive) with OVCAR-4; 5.87 µM (inactive) in the experiment with SF-268; 5.2 µM (inactive) with 786-0; 4.54 µM (inactive) in the experiment on U-251; 3.57 µM (inactive) with OVCAR-8; 2.38 µM (inactive) with CCRF-CEM. Moreover, the GI50 is 2.41 µM (inactive) in the experiment with NCI/ADR-RES; 3.11 µM (inactive) with EKVX; 5.6 µM (inactive) with ACHN; 9.4 µM (inactive) with SK-OV-3; 4.57 µM (inactive) in the experiment on PC-3; 6.01 µM (inactive) with UACC-62. Besides, the GI50 with M14 was 7.38 µM (inactive); in the experiment with COLO 205 it was 4.86 µM (inactive); with HL-60 it was 2.87 µM (inactive); with K562 it was 3.11 µM (inactive); in the experiment with SR it was 3.12 µM (inactive); in the experiment on UO-31, 4.05 µM (inactive). Also, the GI50 in the experiment with HT-29 was 9.73 µM (inactive).
Turning to `CCN(CC)c1ccc(/C=C2\CCc3ccc([N+](=O)[O-])cc3C2=O)cc1`, the GI50 is > 100 µM (inactive) with OVCAR-4; 14.4 µM (inactive) with SF-268; 2.84 µM (inactive) in the experiment on 786-0; 1.7 µM (inactive) with U-251; 3.73 µM (inactive) in the experiment with OVCAR-8; 0.217 µM (active) in the experiment with CCRF-CEM. The GI50 in the experiment on NCI/ADR-RES was 1.03 µM (active); in the experiment with EKVX it was 5.27 µM (inactive); with ACHN, 8.85 µM (inactive); with SK-OV-3, 4.54 µM (inactive); in the experiment with PC-3, 1.97 µM (inactive); in the experiment with UACC-62 it was 1.29 µM (inactive). The GI50 with M14 is 3.54 µM (inactive); in the experiment on COLO 205, 4.01 µM (inactive); in the experiment with HL-60, 0.249 µM (active); in the experiment on K562, 0.0755 µM (active); in the experiment with SR, 0.324 µM (active); with UO-31 it was 7.46 µM (inactive). Besides, in the experiment on HT-29, the GI50 was 0.256 µM (active).
`CC[C@H](C)C1=C(O)[N@+]2([O-])Oc3ccc(-c4c(O)c(O)c(-c5ccc(OC(C)=O)cc5)c(OC(C)=O)c4OC(C)=O)cc3O[C@]2([C@@H](C)CC)C(=O)N1O`: the GI50 in the experiment on OVCAR-4 was 8.79 µM (inactive); with SF-268, 33.3 µM (inactive); in the experiment with 786-0 it was 21.4 µM (inactive); in the experiment with U-251 it was 18.6 µM (inactive); in the experiment with OVCAR-8 it was 24.5 µM (inactive); in the experiment with CCRF-CEM, 10.3 µM (inactive). For the same molecule, the GI50 with NCI/ADR-RES was 12.9 µM (inactive); in the experiment on EKVX it was > 50 µM (inactive); in the experiment on ACHN, 26.3 µM (inactive); with SK-OV-3 it was 15.4 µM (inactive); with PC-3, 34 µM (inactive); in the experiment on UACC-62, 15 µM (inactive). Also, the GI50 with M14 is 27.6 µM (inactive); with COLO 205 it was 16.3 µM (inactive); with HL-60, 15.2 µM (inactive); in the experiment on K562, 12.3 µM (inactive); with SR, 12.5 µM (inactive); with UO-31, > 50 µM (inactive). Besides, the GI50 in the experiment on HT-29 is 25.3 µM (inactive).
For the molecule `Oc1c(C2=N[C@H]3CCCC[C@@H]3N2)ccc2ccccc12`, the GI50 in the experiment with OVCAR-4, with SF-268, in the experiment on 786-0, with U-251, in the experiment on OVCAR-8 and with CCRF-CEM was > 100 µM (inactive) throughout. The GI50 is > 47.6 µM (inactive) in the experiment on NCI/ADR-RES; > 68.2 µM (inactive) with EKVX; > 100 µM (inactive) with ACHN; > 100 µM (inactive) with SK-OV-3; > 100 µM (inactive) with PC-3; > 100 µM (inactive) with UACC-62. The GI50 in the experiment with M14, in the experiment on COLO 205, in the experiment with HL-60, with K562, in the experiment on SR and in the experiment on UO-31 was > 100 µM (inactive) in each case. Also, the GI50 with HT-29 is > 100 µM (inactive).
Consider `NC(C(F)(F)F)(C(F)(F)F)P(=O)(Cc1ccccc1)Cc1ccccc1`, for which the GI50 with OVCAR-4 was > 100 µM (inactive); with SF-268, 73.8 µM (inactive); in the experiment on 786-0, 66.1 µM (inactive); with U-251, > 100 µM (inactive); in the experiment with OVCAR-8, > 100 µM (inactive); in the experiment with CCRF-CEM, > 100 µM (inactive). Further, the GI50 in the experiment with NCI/ADR-RES, in the experiment on EKVX, in the experiment on ACHN, in the experiment on SK-OV-3, with PC-3 and with UACC-62 was > 100 µM (inactive) each time. Further, the GI50 in the experiment on M14, in the experiment with COLO 205, with HL-60, in the experiment with K562, in the experiment on SR and in the experiment on UO-31 was > 100 µM (inactive) throughout. In addition, the GI50 in the experiment with HT-29 was > 100 µM (inactive).
In the case of `CC(=O)NC1C(OCc2ccccc2)OC(CO)C(O)C1OC(C)C(=O)NC(C)C(=O)NC(CCC(=O)NCCCNc1c2ccccc2nc2cccc([N+](=O)[O-])c12)C(N)=O` (stereo not given), the GI50 was 5.14 µM (inactive) in the experiment with OVCAR-4; 1.38 µM (inactive) in the experiment on SF-268; 2.77 µM (inactive) in the experiment on 786-0; 1.6 µM (inactive) in the experiment on U-251; 1.05 µM (active) in the experiment on OVCAR-8; 7.48 µM (inactive) in the experiment with CCRF-CEM. Further, the GI50 in the experiment with NCI/ADR-RES is 4.09 µM (inactive); in the experiment on EKVX, 3.57 µM (inactive); in the experiment with ACHN, 0.792 µM (active); in the experiment with SK-OV-3, 7.26 µM (inactive); in the experiment on PC-3, 0.618 µM (active); in the experiment with UACC-62, 1.25 µM (inactive). Moreover, the GI50 was 1.97 µM (inactive) with M14; 0.57 µM (active) with COLO 205; 1.26 µM (inactive) in the experiment on HL-60; 1.17 µM (inactive) in the experiment on K562; 5.48 µM (inactive) in the experiment on SR; 2.5 µM (inactive) in the experiment with UO-31. Also, in the experiment with HT-29, the GI50 is 0.29 µM (active).
Take `COc1ccccc1NC(=S)NN=C(C)c1cccc(C(C)=NNC(=S)Nc2ccccc2OC)n1`: the GI50 with OVCAR-4 was 24.4 µM (inactive); with SF-268, 15.9 µM (inactive); in the experiment on 786-0, 6.64 µM (inactive); in the experiment on U-251 it was 34.3 µM (inactive); in the experiment with OVCAR-8, 12.9 µM (inactive); with CCRF-CEM, 4.78 µM (inactive). The GI50 with NCI/ADR-RES was 10.4 µM (inactive); with EKVX, 24 µM (inactive); with ACHN it was 14.7 µM (inactive); with SK-OV-3 it was 99.8 µM (inactive); in the experiment on PC-3, 27 µM (inactive); with UACC-62, 20.5 µM (inactive). Further, the GI50 was 5.06 µM (inactive) in the experiment on M14; 19.6 µM (inactive) with COLO 205; 26.3 µM (inactive) in the experiment on HL-60; 20 µM (inactive) with K562; 1.66 µM (inactive) with SR; 20.6 µM (inactive) with UO-31. Moreover, in the experiment with HT-29, the GI50 was 18 µM (inactive).
Turning to `O=C1c2ccccc2C(=O)c2c(NCCNC(=O)C3CCCN3)ccc(NCCNC(=O)C3CCCN3)c21` (stereo not given), the GI50 was > 100 µM (inactive) with OVCAR-4; 34.1 µM (inactive) in the experiment with SF-268; 0.219 µM (active) in the experiment with 786-0; 37.2 µM (inactive) with U-251; 33.9 µM (inactive) with OVCAR-8; 18.8 µM (inactive) with CCRF-CEM. Moreover, the GI50 was > 100 µM (inactive) in the experiment with NCI/ADR-RES; > 100 µM (inactive) with EKVX; 53.7 µM (inactive) in the experiment on ACHN; > 100 µM (inactive) with SK-OV-3; 67.9 µM (inactive) with PC-3; 38.7 µM (inactive) in the experiment on UACC-62. Moreover, the GI50 in the experiment with M14 is > 100 µM (inactive); in the experiment with COLO 205, 24.5 µM (inactive); in the experiment with HL-60 it was 31 µM (inactive); in the experiment with K562 it was 19.2 µM (inactive); in the experiment with SR, 22 µM (inactive); in the experiment with UO-31, 31.5 µM (inactive). Besides, in the experiment on HT-29, the GI50 was 47.4 µM (inactive).
Take `O=C(/C=C/c1ccc(Cl)cc1)c1ccc(Cl)s1`: the GI50 with OVCAR-4 is 69 µM (inactive); in the experiment on SF-268 it was 72.1 µM (inactive); with 786-0, 32.9 µM (inactive); in the experiment on U-251 it was 32.6 µM (inactive); in the experiment with OVCAR-8, 55.8 µM (inactive); in the experiment with CCRF-CEM, 27 µM (inactive). In addition, the GI50 was 72.1 µM (inactive) in the experiment on NCI/ADR-RES; 68.9 µM (inactive) with EKVX; 87.3 µM (inactive) in the experiment on ACHN; 98.6 µM (inactive) in the experiment with SK-OV-3; 63 µM (inactive) with PC-3; 23.4 µM (inactive) in the experiment on UACC-62. Also, the GI50 is 44.1 µM (inactive) in the experiment on M14; 70.8 µM (inactive) with COLO 205; 24.3 µM (inactive) in the experiment with HL-60; 30.3 µM (inactive) in the experiment with K562; 34.3 µM (inactive) with SR; 51.8 µM (inactive) with UO-31. Also, the GI50 with HT-29 is 42.3 µM (inactive).
`Oc1cccc(-c2nc3cc(F)ccc3s2)c1`: the GI50 was 9.42 µM (inactive) in the experiment with OVCAR-4; 23.9 µM (inactive) with SF-268; 19.5 µM (inactive) with 786-0; 24.5 µM (inactive) in the experiment with U-251; 20.6 µM (inactive) with OVCAR-8; 22.3 µM (inactive) in the experiment on CCRF-CEM. The GI50 with NCI/ADR-RES was 17.4 µM (inactive); in the experiment on EKVX, 3.84 µM (inactive); with ACHN it was 23.8 µM (inactive); in the experiment on SK-OV-3, 16.7 µM (inactive); in the experiment on PC-3, 24.2 µM (inactive); in the experiment on UACC-62 it was 14.5 µM (inactive). The GI50 in the experiment on M14 was 18.1 µM (inactive); in the experiment on COLO 205, 15.1 µM (inactive); in the experiment with HL-60 it was 23.2 µM (inactive); with K562 it was 27.5 µM (inactive); with SR, 18 µM (inactive); in the experiment on UO-31, 14.5 µM (inactive). The GI50 with HT-29 was 16.6 µM (inactive).
